Reference: US20080051387A1, “TETRAHYDROPYRIDO[3,4-D]PYRIMIDINES AND RELATED ANALOGUES” (priority 2006, published 2008)

Target: T1, chimeric human H3 receptor (Homo sapiens, UniProt Q9Y5N1)
T1 construct: rat Galpha-i2 (Gnai2, rat); made in house; host or cells: Sf9 insect cells (baculovirus); P2 membranes
Assay: Chimeric human H3 receptor screening GTP binding assay (inhibition of histamine-stimulated GTP-gamma35S binding, Example 8)
Format: biochemical
Conditions: 1 h; assay described in Example 8; symbol "!" in column headed Ki; read-out: Ki ("!": percent inhibition of agonist-induced GTP-gammaS binding to H3)
Method in brief: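 Compound tested at 4 μM against 1 μM histamine stimulation; 125 pM GTP-gamma35S binding measured by filtration and scintillation after 60 min at room temperature. Membranes from Sf9 cells expressing chimeric human H3 plus G-protein subunits, in Tris pH 7.4/NaCl/MgCl2/GDP buffer; values are % inhibition after nonspecific subtraction.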

T1 sequence (Q9Y5N1 with tags, fused parts or gaps): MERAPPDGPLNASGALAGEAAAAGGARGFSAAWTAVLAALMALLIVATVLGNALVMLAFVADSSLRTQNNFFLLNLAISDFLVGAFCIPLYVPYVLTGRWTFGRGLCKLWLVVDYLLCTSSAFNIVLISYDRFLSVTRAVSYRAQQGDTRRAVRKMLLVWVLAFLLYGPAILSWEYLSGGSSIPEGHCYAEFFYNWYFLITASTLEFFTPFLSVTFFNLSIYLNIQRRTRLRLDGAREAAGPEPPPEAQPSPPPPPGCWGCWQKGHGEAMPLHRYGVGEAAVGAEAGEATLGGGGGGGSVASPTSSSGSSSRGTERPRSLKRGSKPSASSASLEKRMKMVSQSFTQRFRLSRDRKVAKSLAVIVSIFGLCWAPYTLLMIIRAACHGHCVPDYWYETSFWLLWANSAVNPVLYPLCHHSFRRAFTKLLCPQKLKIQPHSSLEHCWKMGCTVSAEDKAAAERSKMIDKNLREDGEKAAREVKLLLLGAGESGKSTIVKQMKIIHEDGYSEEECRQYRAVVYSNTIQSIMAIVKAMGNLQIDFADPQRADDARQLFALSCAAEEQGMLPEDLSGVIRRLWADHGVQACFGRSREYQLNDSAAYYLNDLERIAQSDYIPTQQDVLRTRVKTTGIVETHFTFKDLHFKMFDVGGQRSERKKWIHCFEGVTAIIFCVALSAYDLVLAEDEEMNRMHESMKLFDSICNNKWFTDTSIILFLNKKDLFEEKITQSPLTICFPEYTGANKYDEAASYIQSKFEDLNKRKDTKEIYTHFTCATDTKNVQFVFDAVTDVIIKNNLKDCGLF

Inhibition at 4 µM, ≥ 90%:
COc1cc(OC)cc(C(=O)N2CCc3cnc(N4CCN(C5CCC5)CC4)nc3CC2)c1 [Compound 381, 2-(4-cyclobutylpiperazin-1-yl)-7-(3,5-dimethoxybenzoyl)-6,7,8,9-tetrahydro-5H-pyrimido[4,5-d]azepine]
CCCCOc1ccc(C(=O)N2CCc3cnc(N4CCN(C5CCC5)CC4)nc3CC2)cc1 [Compound 382, 7-(4-butoxybenzoyl)-2-(4-cyclobutylpiperazin-1-yl)-6,7,8,9-tetrahydro-5H-pyrimido[4,5-d]azepine]
CCOc1ccc(C(=O)N2CCc3cnc(N4CCN(C5CCC5)CC4)nc3CC2)cc1OCC [Compound 383, 2-(4-cyclobutylpiperazin-1-yl)-7-(3,4-diethoxybenzoyl)-6,7,8,9-tetrahydro-5H-pyrimido[4,5-d]azepine]
COc1cc(C(=O)N2CCc3cnc(N4CCN(C5CCC5)CC4)nc3CC2)cc(OC)c1OC [Compound 384, 2-(4-cyclobutylpiperazin-1-yl)-7-(3,4,5-trimethoxybenzoyl)-6,7,8,9-tetrahydro-5H-pyrimido[4,5-d]azepine]
CCOc1cc(C(=O)N2CCc3cnc(N4CCN(C5CCC5)CC4)nc3CC2)cc(OCC)c1OCC [Compound 385, 2-(4-cyclobutylpiperazin-1-yl)-7-(3,4,5-triethoxybenzoyl)-6,7,8,9-tetrahydro-5H-pyrimido[4,5-d]azepine]
O=C(c1cccc(Cl)c1)N1CCc2cnc(N3CCN(C4CCC4)CC3)nc2CC1 [Compound 386, 7-(3-chlorobenzoyl)-2-(4-cyclobutylpiperazin-1-yl)-6,7,8,9-tetrahydro-5H-pyrimido[4,5-d]azepine]
O=C(c1ccc(Cl)cc1)N1CCc2cnc(N3CCN(C4CCC4)CC3)nc2CC1 [Compound 387, 7-(4-chlorobenzoyl)-2-(4-cyclobutylpiperazin-1-yl)-6,7,8,9-tetrahydro-5H-pyrimido[4,5-d]azepine]
Cc1cccc(C(=O)N2CCc3cnc(N4CCN(C5CCC5)CC4)nc3CC2)c1F [Compound 388, 2-(4-cyclobutylpiperazin-1-yl)-7-(2-fluoro-3-methylbenzoyl)-6,7,8,9-tetrahydro-5H-pyrimido[4,5-d]azepine]
O=C(c1c(F)cccc1F)N1CCc2cnc(N3CCN(C4CCC4)CC3)nc2CC1 [Compound 389, 2-(4-cyclobutylpiperazin-1-yl)-7-(2,6-difluorobenzoyl)-6,7,8,9-tetrahydro-5H-pyrimido[4,5-d]azepine]
O=C(c1ccc(F)c(F)c1)N1CCc2cnc(N3CCN(C4CCC4)CC3)nc2CC1 [Compound 390, 2-(4-cyclobutylpiperazin-1-yl)-7-(3,4-difluorobenzoyl)-6,7,8,9-tetrahydro-5H-pyrimido[4,5-d]azepine]
O=C(c1cc(F)ccc1F)N1CCc2cnc(N3CCN(C4CCC4)CC3)nc2CC1 [Compound 391, 2-(4-cyclobutylpiperazin-1-yl)-7-(2,5-difluorobenzoyl)-6,7,8,9-tetrahydro-5H-pyrimido[4,5-d]azepine]

Same assay, conditions: 1 h; assay of Example 8; symbol "!" in column headed Ki; read-out: percent inhibition of agonist-induced GTP-gammaS binding to H3

Inhibition at 4 µM, ≥ 90%:
CCCOc1ccc(C(=O)N2CCc3cnc(N4CCN(C5CCC5)CC4)nc3CC2)cc1 [Compound 379, 2-(4-cyclobutylpiperazin-1-yl)-7-(4-propoxybenzoyl)-6,7,8,9-tetrahydro-5H-pyrimido[4,5-d]azepine]
CC(C)Oc1ccc(C(=O)N2CCc3cnc(N4CCN(C5CCC5)CC4)nc3CC2)cc1 [Compound 380, 2-(4-cyclobutylpiperazin-1-yl)-7-(4-isopropoxybenzoyl)-6,7,8,9-tetrahydro-5H-pyrimido[4,5-d]azepine]
